“Also recorded” adds a separate entry of the source.
How the values were obtained:
[1] = tested on: Melanoma cell lines (NCBI Code: C136; human skin); experiment: Cytotoxicity assay; format: cell-based; conditions: melanoma cells, 24 hr, MTT
mushroom tyrosinase = experiment: Diphenolase; format: biochemical; conditions: diphenolase activity

Row | Compound | effect on melanoma cell viability / cytotoxicity (in words) [1] | Inhibition (reversibility) (mushroom tyrosinase) | Inhibition type (mushroom tyrosinase)
1 | O=C(O)c1ccccn1 [Picolinic acid, picolinic acid] | declined remarkably; also recorded: cytotoxic effects | reversibly | competitive
2 | Nc1ccc(C(=O)O)cc1 [4-amino benzoic acid] | no significant change | reversibly | noncompetitive
3 | Nc1ccccc1C(=O)O [2-amino benzoic acid] | no significant change | reversibly | noncompetitive
4 | O=C(O)c1cccnc1 [Nicotinic acid, nicotinic acid] | declined remarkably; also recorded: cytotoxic effects | reversibly | competitive

Source: publication PMC4366722 (Iranian Journal of Basic Medical Sciences, 2015)
